Patent US12459974B2, “Bicyclic peptide ligands specific for Nectin-4” (priority 2018, dated 2025)
*1 amine or outer side, *2 acyl side, *3 side chain or, on linkers, in order; H or OH if unused. Where a SMILES comes first, the peptide text is derived from it. Bridges are numbered along the chain shown (N, C = ends). TATA = O=C(CC[*:1])N1CN(C(=O)CC[*:2])CN(C(=O)CC[*:3])C1

target: T1, human Nectin-4 (Homo sapiens, UniProt Q96NY8); assay: Nectin-4 competition binding assay (fluorescence polarisation); settings: not given
T1 sequence (Q96NY8 32-510): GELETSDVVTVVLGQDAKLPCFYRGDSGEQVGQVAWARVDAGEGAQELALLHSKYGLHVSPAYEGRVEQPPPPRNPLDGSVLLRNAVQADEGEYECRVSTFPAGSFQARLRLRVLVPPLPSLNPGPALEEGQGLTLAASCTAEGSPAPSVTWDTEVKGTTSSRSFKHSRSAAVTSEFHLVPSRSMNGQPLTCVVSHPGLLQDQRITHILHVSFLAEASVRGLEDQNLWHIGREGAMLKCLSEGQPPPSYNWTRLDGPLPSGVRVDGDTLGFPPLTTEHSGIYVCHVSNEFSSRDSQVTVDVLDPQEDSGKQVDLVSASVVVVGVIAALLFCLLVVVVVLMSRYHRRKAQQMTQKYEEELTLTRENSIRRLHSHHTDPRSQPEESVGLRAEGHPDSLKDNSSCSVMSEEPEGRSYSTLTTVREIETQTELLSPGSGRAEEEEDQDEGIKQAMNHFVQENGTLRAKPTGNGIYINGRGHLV
Experimental: Peptides were diluted to an appropriate concentration in assay buffer as described in the direct binding assay with a maximum of 5% DMSO, then serially diluted 1 in 2. Five μL of diluted peptide was added to the plate followed by 10 μL of human Nectin-4, then 10 μL fluorescent peptide added. Measurements were conducted as for the direct binding assay, however the gain was determined prior to the first measurement. Data analysis was in Systat Sigmaplot version 12.0 where the mP values were fit to a user defined cubic equation to generate a Ki value: • f=ymin+(ymax−ymin)/Lig*((Lig*((2*((Klig+Kcomp+Lig+Comp-Prot*c)^2-3*(Kcomp*(Lig-Prot*c)+Klig*(Comp-Prot*c)+Klig*Kcomp))^0.5*COS(ARCCOS((−2*(Klig+Kcomp+Lig+Comp-Prot*c)^3+9*(Klig+Kcomp+Lig+Comp-Prot*c)*(Kcomp*(Lig-Prot*c)+Klig*(Comp-Prot*c)+Klig*Kcomp)−27*(−1*Klig*Kcomp*Prot*c)/(2*((((Klig+Kcomp+Lig+Comp-Prot*c)^2−3*(Kcomp*(Lig-Prot*c)+Klig*(Comp-Prot*c)+Klig*Kcomp))^3)^0.5)))/3))−(Klig+Kcomp+Lig+Comp-Prot*c)))/((3*Klig)+((2*((Klig+Kcomp+Lig+Comp-Prot*c)^2−3*(Kcomp*(Lig-Prot*c)+Klig*(Comp-Prot*c)+Klig*Kcomp))^0.5*COS (ARCCOS ((−2*(Klig+Kcomp+Lig+Comp-Prot*c)^3+9*(Klig+Kcomp+Lig+Comp-Prot*c)*(Kcomp*(Lig-Prot*c)+Klig*(Comp-Prot*c)+Klig*Kcomp)-27*(−1*Klig*Kcomp*Prot*c))/(2*((((Klig+Kcomp+Lig+Comp-Prot*c)^2-3*(Kcomp*(Lig-Prot*c)+Klig*(Comp-Prot+c)+Klig*Kcomp))^3)^0.5))/3)−(Klig+Kcomp+Lig+Comp-Prot*c)))).
“Lig”, “KLig” and “Prot” were all defined values relating to: fluorescent peptide concentration, the Kd of the fluorescent peptide and Nectin concentration respectively.

| Structure (SMILES) | Ki [µM] |
| --- | --- |
| CC[C@H](C)[C@@H]1NC(=O)[C@@H]2CCCN2C(=O)[C@H](Cc2c[nH]c3ccccc23)NC(=O)[C@H](CO)NC(=O)[C@H](Cc2c[nH]c3ccccc23)NC(=O)[C@H](CC(N)=O)NC(=O)[C@H](CCCCN)NC(=O)[C@H](CCSC)NC(=O)[C@@H]2CSCCC(=O)N3CN(CN(C3)C(=O)CCSC[C@H](NC(=O)[C@H](C)N)C(=O)N3CCC[C@H]3C(=O)N[C@@H](Cc3ccccc3)C(=O)N[C@@H](C)C(=O)N2)C(=O)CCSC[C@@H](C(=O)N[C@H](C(=O)N[C@@H](CC(N)=O)C(=O)N[C@@H](CCCCN)C(N)=O)[C@@H](C)O)NC(=O)[C@H](Cc2c[nH]c3ccccc23)NC1=O [BCY7354, A-(SEQ ID NO: 6)-TNK] | 0.884 |

same assay, conditions: competition with fluorescent peptide SEQ ID NO: 217; read-out: Ki

| Structure (SMILES) | Ki [µM] |
| --- | --- |
| CC[C@H](C)[C@@H]1NC(=O)[C@@H]2CCCN2C(=O)[C@H](Cc2c[nH]c3ccccc23)NC(=O)[C@H](CO)NC(=O)[C@H](Cc2c[nH]c3ccccc23)NC(=O)[C@H](CO)NC(=O)[C@H](CCCCN)NC(=O)[C@H](CCSC)NC(=O)[C@@H]2CSCCC(=O)N3CN(CN(C3)C(=O)CCSC[C@H](NC(=O)[C@H](CO)NC(=O)[C@H](CC(=O)O)NC(=O)[C@@H](N)Cc3c[nH]cn3)C(=O)N3CCC[C@H]3C(=O)N[C@@H](Cc3ccccc3)C(=O)NCC(=O)N2)C(=O)CCSC[C@@H](C(=O)N[C@@H](C)C(N)=O)NC(=O)[C@H](Cc2c[nH]c3ccccc23)NC1=O [BCY3393, HDS-(SEQ ID NO: 51)-A] (H-HDSCPFGCMKSWSWPIWCA-NH2; linker 4-8-18 via TATA) | 0.173 |
| CC[C@H](C)[C@@H]1NC(=O)[C@@H]2CCCN2C(=O)[C@H](Cc2c[nH]c3ccccc23)NC(=O)[C@H](CO)NC(=O)[C@H](Cc2c[nH]c3ccccc23)NC(=O)[C@H]([C@@H](C)O)NC(=O)[C@H](CCCCN)NC(=O)[C@H](CCSC)NC(=O)[C@@H]2CSCCC(=O)N3CN(CN(C3)C(=O)CCSC[C@H](NC(=O)[C@H](C)N)C(=O)N3CCC[C@H]3C(=O)N[C@@H](Cc3ccccc3)C(=O)NCC(=O)N2)C(=O)CCSC[C@@H](C(=O)N[C@H](C(=O)N[C@@H](CC(=O)O)C(=O)N[C@@H](CCCCN)C(N)=O)[C@@H](C)O)NC(=O)[C@H](Cc2c[nH]c3ccccc23)NC1=O [BCY3394, A-(SEQ ID NO: 52)-TDK] (H-ACPFGCMKTWSWPIWCTDK-NH2; linker 2-6-16 via TATA; N-terminus and C-terminus assumed) | 0.102 |
| CC[C@H](C)[C@@H]1NC(=O)[C@@H]2CCCN2C(=O)[C@H](Cc2c[nH]c3ccccc23)NC(=O)[C@H](CO)NC(=O)[C@H](Cc2c[nH]c3ccccc23)NC(=O)CNC(=O)[C@H](CCCCN)NC(=O)[C@H](CCSC)NC(=O)[C@@H]2CSCCC(=O)N3CN(CN(C3)C(=O)CCSC[C@H](NC(=O)[C@H](C)N)C(=O)N3CCC[C@H]3C(=O)N[C@@H](Cc3ccccc3)C(=O)NCC(=O)N2)C(=O)CCSC[C@@H](C(=O)N[C@@H](CC(C)C)C(=O)N[C@@H](CCCCN)C(=O)N[C@@H](CC(=O)O)C(N)=O)NC(=O)[C@H](Cc2c[nH]c3ccccc23)NC1=O [BCY3395, A-(SEQ ID NO: 53)-LKD] (H-ACPFGCMKGWSWPIWCLKD-NH2; linker 2-6-16 via TATA; N-terminus and C-terminus assumed) | 0.0174 |
| CC[C@H](C)[C@@H]1NC(=O)[C@@H]2CCCN2C(=O)[C@H](Cc2c[nH]c3ccccc23)NC(=O)[C@H](CO)NC(=O)[C@H](Cc2c[nH]c3ccccc23)NC(=O)[C@H](Cc2c[nH]cn2)NC(=O)[C@H](CCC(=O)O)NC(=O)[C@H](CCC(N)=O)NC(=O)[C@@H]2CSCCC(=O)N3CN(CN(C3)C(=O)CCSC[C@H](NC(=O)[C@H](C)N)C(=O)N3CCC[C@H]3C(=O)N[C@@H](Cc3ccccc3)C(=O)NCC(=O)N2)C(=O)CCSC[C@@H](C(=O)N[C@H](C(=O)N[C@H](C(=O)N[C@@H](C)C(N)=O)[C@@H](C)O)[C@@H](C)O)NC(=O)[C@H](Cc2c[nH]c3ccccc23)NC1=O [BCY3396, A-(SEQ ID NO: 54)-TTA] (H-ACPFGCQEHWSWPIWCTTA-NH2; linker 2-6-16 via TATA; N-terminus and C-terminus assumed) | 0.102 |
| CC[C@H](C)[C@@H]1NC(=O)[C@@H]2CSCCC(=O)N3CN(CN(C3)C(=O)CCSC[C@H](NC(=O)[C@H](C)N)C(=O)N3CCC[C@H]3C(=O)N[C@@H](Cc3ccccc3)C(=O)NCC(=O)N2)C(=O)CCSC[C@@H](C(=O)N[C@@H](CCC(N)=O)C(=O)N[C@@H](CCSC)C(=O)N[C@@H](CCC(=O)O)C(N)=O)NC(=O)[C@H](Cc2c[nH]c3ccccc23)NC(=O)[C@H]([C@@H](C)CC)NC(=O)[C@@H]2CCCN2C(=O)[C@H](Cc2c[nH]c3ccccc23)NC(=O)[C@H](CO)NC(=O)[C@H](Cc2c[nH]c3ccccc23)NC(=O)[C@H](CO)NC(=O)[C@H](CCCCN)NC1=O [BCY3397, A-(SEQ ID NO: 55)-QME] (H-ACPFGCIKSWSWPIWCQME-NH2; linker 2-6-16 via TATA; N-terminus and C-terminus assumed) | 0.0332 |
| CC[C@H](C)[C@@H]1NC(=O)[C@@H]2CCCN2C(=O)[C@H](Cc2c[nH]c3ccccc23)NC(=O)[C@H](CO)NC(=O)[C@H](Cc2c[nH]c3ccccc23)NC(=O)[C@H](CC(=O)O)NC(=O)[C@H](CCC(=O)O)NC(=O)[C@H](CCC(N)=O)NC(=O)[C@@H]2CSCCC(=O)N3CN(CN(C3)C(=O)CCSC[C@H](NC(=O)[C@H](C)N)C(=O)N3CCC[C@H]3C(=O)N[C@@H](Cc3ccccc3)C(=O)NCC(=O)N2)C(=O)CCSC[C@@H](C(=O)N[C@@H](CC(C)C)C(=O)N[C@@H](CO)C(=O)N[C@@H](CCC(=O)O)C(N)=O)NC(=O)[C@H](Cc2c[nH]c3ccccc23)NC1=O [BCY3398, A-(SEQ ID NO: 56)-LSE] (H-ACPFGCQEDWSWPIWCLSE-NH2; linker 2-6-16 via TATA; N-terminus and C-terminus assumed) | 0.164 |
| CC[C@H](C)[C@@H]1NC(=O)[C@@H]2CCCN2C(=O)[C@H](Cc2c[nH]c3ccccc23)NC(=O)[C@H](CO)NC(=O)[C@H](Cc2c[nH]c3ccccc23)NC(=O)[C@H](CC(=O)O)NC(=O)[C@H](CO)NC(=O)[C@H](CCSC)NC(=O)[C@@H]2CSCCC(=O)N3CN(CN(C3)C(=O)CCSC[C@H](NC(=O)[C@H](C)N)C(=O)N3CCC[C@H]3C(=O)N[C@@H](Cc3ccccc3)C(=O)NCC(=O)N2)C(=O)CCSC[C@@H](C(=O)N[C@@H](CO)C(=O)N[C@H](C(=O)N[C@@H](CC(=O)O)C(N)=O)[C@@H](C)O)NC(=O)[C@H](Cc2c[nH]c3ccccc23)NC1=O [BCY3399, A-(SEQ ID NO: 57)-STD] (H-ACPFGCMSDWSWPIWCSTD-NH2; linker 2-6-16 via TATA; N-terminus and C-terminus assumed) | 0.41 |
| CC[C@H](C)[C@@H]1NC(=O)[C@H](CCCNC(=N)N)NC(=O)[C@@H]2CCCN2C(=O)[C@@H]2CSCCC(=O)N3CN(CN(C3)C(=O)CCSC[C@@H](C(=O)N3CCC[C@H]3C(=O)N[C@@H](CCC(N)=O)C(=O)N[C@@H](C)C(N)=O)NC1=O)C(=O)CCSC[C@H](NC(=O)[C@H](C)N)C(=O)N[C@@H](Cc1c[nH]c3ccccc13)C(=O)N1CCC[C@H]1C(=O)N[C@@H](CC(C)C)C(=O)N[C@@H](CC(=O)O)C(=O)N[C@@H](CC(=O)O)C(=O)N[C@@H](Cc1ccc(O)cc1)C(=O)N[C@@H](Cc1c[nH]c3ccccc13)C(=O)N2 [BCY3401, A-(SEQ ID NO: 58)-PQA] (H-ACWPLDDYWCPRICPQA-NH2; linker 2-10-14 via TATA; N-terminus and C-terminus assumed) | 0.154 |
| CC[C@H](C)[C@@H]1NC(=O)[C@@H]2CCCN2C(=O)[C@H](Cc2c[nH]c3ccccc23)NC(=O)[C@H](CO)NC(=O)[C@H](Cc2c[nH]c3ccccc23)NC(=O)[C@H](CC(N)=O)NC(=O)[C@H](CCCCN)NC(=O)[C@H](CCSC)NC(=O)[C@@H]2CSCCC(=O)N3CN(CN(C3)C(=O)CCSC[C@H](NC(=O)[C@H](C)N)C(=O)N3CCC[C@H]3C(=O)N[C@@H](Cc3ccccc3)C(=O)NCC(=O)N2)C(=O)CCSC[C@@H](C(=O)N[C@H](C(=O)N[C@@H](CC(N)=O)C(=O)N[C@@H](C)C(N)=O)[C@@H](C)O)NC(=O)[C@H](Cc2c[nH]c3ccccc23)NC1=O [BCY7348, A-(SEQ ID NO: 1)-TNA] | 0.0206 |
